Like-named read-outs stand apart in the source and are kept apart here.

3 molecules from patent US20260256738A1, “METHODS OF TREATING CANCER WITH A RAS MUTATION” (Immuneering Corporation, priority 2023, published 2026) can be followed below.

Data set [1] deals with T1, CYP450 2D6 (Homo sapiens, UniProt P10635).
Data set [2] deals with T1, CYP450 2D6. Kind of data set: CYP450 Panel. As to conditions: 10 μM; substrate dextromethorphan; in % (unit assumed).
Data set [3] can be described thus: Plasma Stability (% remaining @2 hour). The data set is classed as in vitro ADME. The settings on record: Beagle Dog; 2 μM.
Data set [4] concerns Caco-2. Nature of the data set: Caco-2 permeability. As to conditions: 10 μM, 2 hrs. On the technique in general: Caco-2 cells form a polarised layer with tight junctions and transporters.
The next data set in a line: Caco-2 permeability. The settings on record: human.
The next data set addresses T2, CYP450 2B6 (Homo sapiens, UniProt P20813).
T2 sequence (P20813 1-491): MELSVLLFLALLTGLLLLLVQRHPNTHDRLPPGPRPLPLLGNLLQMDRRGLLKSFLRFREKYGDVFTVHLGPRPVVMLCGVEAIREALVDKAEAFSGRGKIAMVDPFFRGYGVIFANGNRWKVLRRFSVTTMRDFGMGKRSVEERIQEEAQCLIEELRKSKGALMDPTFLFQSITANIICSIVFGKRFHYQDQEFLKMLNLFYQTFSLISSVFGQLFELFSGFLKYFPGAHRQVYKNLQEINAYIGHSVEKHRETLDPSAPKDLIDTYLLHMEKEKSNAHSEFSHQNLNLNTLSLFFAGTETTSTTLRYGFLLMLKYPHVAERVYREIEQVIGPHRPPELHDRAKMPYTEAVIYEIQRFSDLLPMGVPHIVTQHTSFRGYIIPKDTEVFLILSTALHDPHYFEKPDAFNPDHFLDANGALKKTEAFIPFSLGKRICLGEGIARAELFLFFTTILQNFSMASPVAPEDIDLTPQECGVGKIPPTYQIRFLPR
Kind of data set: CYP450 Panel. The data set is classed as in vitro ADME. As to conditions: 10 μM; substrate bupropion.

Data set [5] can be described thus: Plasma Stability (% remaining @2 hour). The settings on record: CD-1 Mouse; 2 μM. The data set is classed as in vitro ADME.
The next data set deals with CYP450 2C9 (Homo sapiens, UniProt P11712). Nature of the data set: CYP450 Panel. The settings on record: 10 μM; substrate Diclofenac; in % (unit assumed). The format is in vitro ADME.
Chain of CYP450 2C9 (P11712 whole entry): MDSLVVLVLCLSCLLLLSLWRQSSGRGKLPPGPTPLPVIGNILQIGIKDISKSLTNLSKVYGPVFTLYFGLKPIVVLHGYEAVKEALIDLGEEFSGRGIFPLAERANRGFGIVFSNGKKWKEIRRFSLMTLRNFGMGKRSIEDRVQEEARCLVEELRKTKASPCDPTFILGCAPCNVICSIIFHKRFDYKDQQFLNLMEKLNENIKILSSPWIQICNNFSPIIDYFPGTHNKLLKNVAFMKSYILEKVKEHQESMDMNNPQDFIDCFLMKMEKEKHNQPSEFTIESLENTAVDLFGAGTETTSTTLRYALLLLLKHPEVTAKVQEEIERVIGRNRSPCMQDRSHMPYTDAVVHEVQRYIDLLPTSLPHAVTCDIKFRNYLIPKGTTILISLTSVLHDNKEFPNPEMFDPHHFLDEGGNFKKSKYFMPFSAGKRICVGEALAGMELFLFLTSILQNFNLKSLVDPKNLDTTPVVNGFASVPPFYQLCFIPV
The target in the next data set is hERG Channel (Homo sapiens, UniProt Q12809). Kind of data set: biochemical.
Chain of hERG Channel (Q12809 whole entry): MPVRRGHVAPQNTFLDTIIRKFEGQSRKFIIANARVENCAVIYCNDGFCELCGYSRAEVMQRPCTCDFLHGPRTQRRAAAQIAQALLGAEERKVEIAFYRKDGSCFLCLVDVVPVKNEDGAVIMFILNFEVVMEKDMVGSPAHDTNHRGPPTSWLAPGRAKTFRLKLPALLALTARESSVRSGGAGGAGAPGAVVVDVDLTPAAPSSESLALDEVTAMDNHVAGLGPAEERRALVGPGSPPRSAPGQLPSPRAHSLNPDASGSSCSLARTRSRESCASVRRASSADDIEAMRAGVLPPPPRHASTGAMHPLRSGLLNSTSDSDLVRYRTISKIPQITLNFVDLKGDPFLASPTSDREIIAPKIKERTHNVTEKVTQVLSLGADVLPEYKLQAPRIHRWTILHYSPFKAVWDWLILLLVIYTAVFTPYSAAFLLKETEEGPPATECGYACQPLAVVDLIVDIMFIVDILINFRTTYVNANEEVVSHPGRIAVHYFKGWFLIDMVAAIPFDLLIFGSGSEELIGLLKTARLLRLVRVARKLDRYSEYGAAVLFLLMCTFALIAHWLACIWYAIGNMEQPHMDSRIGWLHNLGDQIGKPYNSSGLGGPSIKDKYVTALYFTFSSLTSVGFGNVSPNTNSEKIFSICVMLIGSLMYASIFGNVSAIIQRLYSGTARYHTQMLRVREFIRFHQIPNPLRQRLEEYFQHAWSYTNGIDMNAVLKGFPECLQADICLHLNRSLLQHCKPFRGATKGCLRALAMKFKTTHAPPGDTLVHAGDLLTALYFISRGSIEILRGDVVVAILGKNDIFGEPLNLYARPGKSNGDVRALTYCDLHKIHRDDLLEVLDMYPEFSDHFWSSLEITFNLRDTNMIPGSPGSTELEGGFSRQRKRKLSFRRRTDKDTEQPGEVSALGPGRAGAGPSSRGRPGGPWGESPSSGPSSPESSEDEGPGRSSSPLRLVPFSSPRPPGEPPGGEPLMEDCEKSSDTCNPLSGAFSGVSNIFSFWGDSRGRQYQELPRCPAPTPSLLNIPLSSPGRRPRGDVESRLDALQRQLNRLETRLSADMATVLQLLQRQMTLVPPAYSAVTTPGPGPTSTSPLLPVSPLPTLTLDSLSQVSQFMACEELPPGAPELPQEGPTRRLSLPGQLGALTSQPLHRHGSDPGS
Another data set deals with T3, CYP450 2C8 (Homo sapiens, UniProt P10632).
T3 sequence (P10632 1-490): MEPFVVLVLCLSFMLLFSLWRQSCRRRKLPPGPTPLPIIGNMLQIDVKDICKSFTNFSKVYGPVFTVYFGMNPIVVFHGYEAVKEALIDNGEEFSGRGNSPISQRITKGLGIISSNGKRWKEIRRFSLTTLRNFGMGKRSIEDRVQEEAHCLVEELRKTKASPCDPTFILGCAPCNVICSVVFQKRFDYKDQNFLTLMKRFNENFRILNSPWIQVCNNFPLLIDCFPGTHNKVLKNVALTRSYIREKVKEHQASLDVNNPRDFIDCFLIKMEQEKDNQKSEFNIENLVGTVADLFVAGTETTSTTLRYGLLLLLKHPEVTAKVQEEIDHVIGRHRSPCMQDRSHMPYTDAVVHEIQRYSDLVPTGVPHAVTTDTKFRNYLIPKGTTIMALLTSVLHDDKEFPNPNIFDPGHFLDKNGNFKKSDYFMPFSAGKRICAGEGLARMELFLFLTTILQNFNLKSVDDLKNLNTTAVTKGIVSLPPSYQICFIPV
Kind of data set: CYP450 Panel. The data set is classed as in vitro ADME. As to conditions: 10 μM; substrate amodiaquine.

Another data set addresses CYP450 3A4 (Homo sapiens, UniProt P08684). Nature of the data set: CYP450 Panel. As to conditions: 10 μM. The data set is classed as in vitro ADME.
Data set [6] in a line: Microsome Stability (% remaining @1 hour). As to conditions: CD-1 Mouse; 2 μM.
A further data set deals with T4, CYP450 1A2 (Homo sapiens, UniProt P05177).
T4 sequence (P05177 1-516): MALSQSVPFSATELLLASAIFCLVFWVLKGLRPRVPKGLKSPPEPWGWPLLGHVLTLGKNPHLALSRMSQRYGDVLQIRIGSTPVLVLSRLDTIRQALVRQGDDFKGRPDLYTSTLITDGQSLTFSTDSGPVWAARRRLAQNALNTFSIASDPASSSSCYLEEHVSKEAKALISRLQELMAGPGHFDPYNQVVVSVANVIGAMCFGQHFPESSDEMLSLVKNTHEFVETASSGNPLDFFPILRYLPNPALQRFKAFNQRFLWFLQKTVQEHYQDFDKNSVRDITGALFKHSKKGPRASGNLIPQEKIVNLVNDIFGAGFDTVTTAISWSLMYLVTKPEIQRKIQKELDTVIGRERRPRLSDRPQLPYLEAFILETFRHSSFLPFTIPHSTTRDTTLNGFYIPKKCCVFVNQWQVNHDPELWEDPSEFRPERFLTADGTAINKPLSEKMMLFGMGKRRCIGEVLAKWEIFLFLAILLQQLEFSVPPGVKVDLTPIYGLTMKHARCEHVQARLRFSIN
Kind of data set: CYP450 Panel. The settings on record: 10 μM; substrate phenacetin; in % (unit assumed).

Data set [7] is described as follows: Plasma Stability (% remaining @2 hour). The format is in vitro ADME. As to conditions: SD Rat; 2 μM.
The nature of data set [8]: Microsome Stability (% remaining @1 hour). As to conditions: SD Rat; 2 μM. The data set is classed as in vitro ADME.
Data set [9] in a line: Plasma Stability (% remaining @2 hour). The data set is classed as in vitro ADME. The settings on record: Human; 2 μM.
Another data set relates to pERK in A549 (KRAS-G12S). Kind of data set: Cell-based pERK dose response / phospho-ERK screen in A549. Further details: species or system Human. The settings on record: A549 (KRAS G12S), 10 μM for 2 hours. On the procedure:
Materials and Methods: A549 or A375 cells were seeded in 6-well plates at an appropriate seeding density on day 0. On day 2 or 3, after checking the health and confluency of cells, the media was aspirated and replaced with 1 mL media containing a predetermined concentration of compound and incubated for 2 hours. After 2 hours, the media was aspirated, and the cells washed 2 times with cold PBS. Cells were lysed on ice, with 50 μL 1× CST lysis buffer+1 mM PMSF for 5 minutes. After 5 minutes, cells were removed using a scraper and transferred to cold 1.5 mL tubes, and centrifuged for 10 min, 4° C., 14,000×g. Supernatant was gently removed and snap frozen in liquid nitrogen. Protein concentration of the lysate was determined using Bradford Reagent (analyzed using SpectraMax M2E) and diluted to 1 mg/mL or pERK or 1.5 mg/mL for pMEK analysis. […] All dilutions were in Milk-free antibody diluent.

A short description of data set [10]: Microsome Stability (% remaining @1 hour). The data set is classed as in vitro ADME. The settings on record: Beagle Dog; 2 μM.
Data set [11] is described as follows: Microsome Stability (% remaining @1 hour). The data set is classed as in vitro ADME. As to conditions: Human; 2 μM.
The target of the next data set is CYP450 2C19 (Homo sapiens, UniProt P33261). Nature of the data set: CYP450 Panel. The format is in vitro ADME. As to conditions: 10 μM; substrate mephenytoin; in % (unit assumed).
Chain of CYP450 2C19 (P33261 whole entry): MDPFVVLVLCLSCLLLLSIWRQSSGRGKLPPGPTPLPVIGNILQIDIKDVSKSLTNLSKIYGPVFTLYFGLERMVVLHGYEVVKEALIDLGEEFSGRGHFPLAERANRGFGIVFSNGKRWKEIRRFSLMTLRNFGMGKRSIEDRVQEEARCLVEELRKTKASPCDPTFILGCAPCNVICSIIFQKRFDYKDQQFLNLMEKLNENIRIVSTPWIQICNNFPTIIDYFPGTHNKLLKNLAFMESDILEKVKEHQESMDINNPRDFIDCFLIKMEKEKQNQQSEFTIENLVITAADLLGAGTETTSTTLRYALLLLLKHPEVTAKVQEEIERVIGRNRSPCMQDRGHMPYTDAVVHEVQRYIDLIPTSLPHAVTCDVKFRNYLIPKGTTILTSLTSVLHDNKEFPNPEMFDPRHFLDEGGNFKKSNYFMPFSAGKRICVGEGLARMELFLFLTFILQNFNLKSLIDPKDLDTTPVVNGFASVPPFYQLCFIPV
For data set [12], the system named is Caco-2.

Chain of CYP450 3A4 (P08684 whole entry): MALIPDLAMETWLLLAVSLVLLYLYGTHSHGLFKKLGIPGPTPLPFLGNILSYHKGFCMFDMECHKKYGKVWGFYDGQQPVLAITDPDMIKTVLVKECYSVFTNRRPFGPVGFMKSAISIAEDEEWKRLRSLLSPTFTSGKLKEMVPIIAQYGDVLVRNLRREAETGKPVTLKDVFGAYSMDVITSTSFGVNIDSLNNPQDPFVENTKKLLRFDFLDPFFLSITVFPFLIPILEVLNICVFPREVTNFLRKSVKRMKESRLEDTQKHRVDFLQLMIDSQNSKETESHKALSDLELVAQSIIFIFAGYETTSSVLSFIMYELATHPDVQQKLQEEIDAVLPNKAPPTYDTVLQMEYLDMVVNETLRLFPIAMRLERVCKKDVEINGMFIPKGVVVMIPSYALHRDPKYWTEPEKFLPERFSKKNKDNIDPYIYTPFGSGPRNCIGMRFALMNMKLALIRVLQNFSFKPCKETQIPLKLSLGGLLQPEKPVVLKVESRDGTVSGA
T1 sequence (P10635 whole entry): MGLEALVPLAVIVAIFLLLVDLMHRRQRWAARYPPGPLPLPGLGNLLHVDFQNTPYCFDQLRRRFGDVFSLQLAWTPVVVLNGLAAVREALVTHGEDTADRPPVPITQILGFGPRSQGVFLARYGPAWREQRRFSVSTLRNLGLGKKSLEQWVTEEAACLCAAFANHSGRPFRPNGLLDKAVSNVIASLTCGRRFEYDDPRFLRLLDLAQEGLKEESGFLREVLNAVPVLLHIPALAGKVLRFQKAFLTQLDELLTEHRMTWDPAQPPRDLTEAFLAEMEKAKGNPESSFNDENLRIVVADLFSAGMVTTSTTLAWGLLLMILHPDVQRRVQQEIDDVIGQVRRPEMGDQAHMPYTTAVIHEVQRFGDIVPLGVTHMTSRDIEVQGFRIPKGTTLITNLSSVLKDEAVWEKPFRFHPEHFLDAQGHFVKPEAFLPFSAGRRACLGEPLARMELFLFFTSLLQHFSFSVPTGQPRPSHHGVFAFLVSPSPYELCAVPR

With `C=C[C@H]1C[N@@]2CC[C@H]1C[C@@H]2[C@@H](O)c1ccnc2ccc(OC)cc12` [Quinidine], the “CYP450 Panel 2D6” value at CYP450 2D6 [1] was found to be 99.7.

For orientation: Papp A→B means how fast a substance crosses the layer from the apical side. Read a low Papp A→B as poor permeation. One may read the Papp B→A as how fast a substance crosses the layer from the basolateral side. For orientation: efflux ratio means the permeability from basolateral to apical divided by that in the opposite direction, in the common usage. One may read the IC50 as the concentration that inhibits the measured activity by half. The low end stands for higher potency, the high end for lower potency. `CNS(=O)(=O)Nc1cccc(Cc2c(C)c3ccc(OC(=O)N(C)C)cc3oc2=O)c1F` [Reference 7]: the “CYP450 Panel 2D6” value on CYP450 2D6 [2] was −7.4. Moreover, the “Plasma stability, % Remaining @2 hour” value in data set [3] is recorded as 99.8%; in data set [5], 56.5%; in data set [7], 77.3%; in [9], 88.1%. Also, the “A − B Permeability Ranking” value in the data set with Caco-2 [4] is listed as “High”. Besides, in “Caco-2 permeability”, the Papp A→B at 2 h, 10 μM worked out at 14.4 ×10⁻⁶ cm/s. In “Caco-2 permeability”, this molecule displayed a Papp B→A at 2 h, 10 μM of 10 ×10⁻⁶ cm/s. For the same molecule, the efflux ratio at 2 h, 10 μM in the data set “Caco-2 permeability” was 0.695. The molecule also yielded a CYP450 Panel 2B6 at CYP450 2B6 of 28.5%. In addition, on CYP450 2C9, the “CYP450 Panel 2C9” value is recorded as 33.8. This molecule also registered an IC50 on hERG Channel of 28.6 µM. On CYP450 2C8, this molecule showed a CYP450 Panel 2C8 of 14.4%. At CYP450 3A4 (substrate midazolam), this molecule returned a CYP450 Panel 3A4 (midazolam) of 29.9%. This molecule had a CYP450 Panel 3A4 (testosterone) at CYP450 3A4 (substrate testosterone) of 59.7%. The “Microsome stability, % Remaining @1 hour” value in data set [6] came out at 29.6%; in [8] it was 2.7%; in [10], 57.0%; in data set [11], 61.1%. Also, the “CYP450 Panel 1A2” value on CYP450 1A2 was determined as 0.3. Moreover, the results for the “pERK: total ERK (% relative to vehicle)” value in the data set on pERK in A549 (KRAS-G12S) (Table 8A) and in the data set on pERK in A549 (KRAS-G12S) (Table 8B) were 0.53% and 3.33%, respectively. Further, the “CYP450 Panel 2C19” value at CYP450 2C19 was determined as 11.6.

For `CC(=O)CC(c1ccccc1)c1c(O)c2ccccc2oc1=O` (stereo not shown) [Warfarin], the “A − B Permeability Ranking” value in the data set on Caco-2 [12] is on record as “High”.
